Laboratory results: ChEMBL document CHEMBL4627347, “The signal peptide as a new target for drug design” (Bioorg Med Chem Lett, 2020)

Experiments:
[1] = molecular target: T-cell surface glycoprotein CD4 (Homo sapiens, UniProt P01730); assay: Inhibition of FITC-tagged human CD4 expressed in human SUP-T1 cells after 72 hrs by FACS analysis; format: cell-based
[2] = molecular target: T1, Sortilin (Homo sapiens, UniProt Q99523); assay: Inhibition of GFP-tagged Sortilin (unknown origin) expressed in HEK293T cells after 42 hrs by FACS analysis; format: cell-based, HEK-293T
T1 sequence (Q99523 whole entry): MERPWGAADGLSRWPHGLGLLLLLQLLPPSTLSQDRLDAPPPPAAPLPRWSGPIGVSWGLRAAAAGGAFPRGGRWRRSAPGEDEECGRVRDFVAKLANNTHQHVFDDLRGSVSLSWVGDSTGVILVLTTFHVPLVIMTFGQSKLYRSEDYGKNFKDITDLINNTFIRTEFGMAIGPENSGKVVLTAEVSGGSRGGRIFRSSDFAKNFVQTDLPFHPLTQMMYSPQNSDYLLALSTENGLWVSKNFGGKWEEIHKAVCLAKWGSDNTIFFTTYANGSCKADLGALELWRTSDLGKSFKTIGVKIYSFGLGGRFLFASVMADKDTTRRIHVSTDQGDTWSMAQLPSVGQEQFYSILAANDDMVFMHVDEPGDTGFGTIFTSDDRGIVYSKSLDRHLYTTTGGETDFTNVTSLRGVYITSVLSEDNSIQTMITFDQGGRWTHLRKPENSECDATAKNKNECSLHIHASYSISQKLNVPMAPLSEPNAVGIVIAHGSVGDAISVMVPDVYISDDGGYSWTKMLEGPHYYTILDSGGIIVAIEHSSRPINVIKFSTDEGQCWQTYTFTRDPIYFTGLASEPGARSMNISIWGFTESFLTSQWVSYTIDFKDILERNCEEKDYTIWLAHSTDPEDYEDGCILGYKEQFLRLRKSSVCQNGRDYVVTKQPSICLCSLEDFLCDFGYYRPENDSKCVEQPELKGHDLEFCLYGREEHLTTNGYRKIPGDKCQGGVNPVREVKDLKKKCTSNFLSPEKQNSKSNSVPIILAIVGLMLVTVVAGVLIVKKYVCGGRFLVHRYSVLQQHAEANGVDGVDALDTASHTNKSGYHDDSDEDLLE

- IC50 [1]: 210 nM
- IC50 [2]: 380 nM
SMILES: C=C1CN(S(=O)(=O)c2ccc(C)cc2)CCCN(Cc2ccccc2)CCCN(S(=O)(=O)c2ccc(C)cc2)C1
